Test results as given in article PMC8840488, “Antidiabetic Activity and In Silico Molecular Docking of Polyphenols from Ammannia baccifera L. subsp. Aegyptiaca (Willd.) Koehne Waste: Structure Elucidation of Undescribed Acylated Flavonol Diglucoside” (Plants, 2022).

What was measured:
β-glucosidase = assay: In vitro β-glucosidase inhibition; assay type: biochemical; details: for β-glucosidase IC50: concentration range 75–600 µg/mL
Procedure: The assay was performed in conformity with and used the same formula for amylase.

α-amylase = target: T1, α-amylase (Homo sapiens, UniProt P04746); assay: In vitro α-amylase inhibition; assay type: biochemical; details: for IC50: concentration range 75–600 µg/mL
T1 construct: purchased Sigma-Aldrich (Merck, Darmstadt, Germany)
T1 sequence (P04746 16-511): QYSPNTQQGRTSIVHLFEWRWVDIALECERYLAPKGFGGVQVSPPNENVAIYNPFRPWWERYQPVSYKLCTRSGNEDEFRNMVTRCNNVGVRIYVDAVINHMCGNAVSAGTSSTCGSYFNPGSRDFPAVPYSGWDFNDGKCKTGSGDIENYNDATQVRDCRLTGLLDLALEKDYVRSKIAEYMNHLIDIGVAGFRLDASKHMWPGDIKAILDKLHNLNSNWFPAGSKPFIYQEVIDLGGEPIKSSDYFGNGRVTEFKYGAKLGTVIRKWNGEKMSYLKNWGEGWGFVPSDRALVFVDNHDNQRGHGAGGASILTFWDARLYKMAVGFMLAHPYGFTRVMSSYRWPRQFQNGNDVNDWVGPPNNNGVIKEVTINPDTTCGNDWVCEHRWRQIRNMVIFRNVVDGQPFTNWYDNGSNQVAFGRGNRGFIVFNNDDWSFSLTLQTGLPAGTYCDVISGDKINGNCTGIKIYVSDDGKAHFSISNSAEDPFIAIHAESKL
Description: The assay was implemented in accordance with. […] The percentage of inhibition can be estimated using the following Equation: 100−[{A sample/ Acontrol ×100]

Reducing power assay = assay: Reducing power assay
Procedure: In the reducing-power assay, the more antioxidant compounds convert the oxidated form of iron (Fe^+3) in ferric chloride to ferrous (Fe^+2), which leads to an increase in colored ferrous-TPTZ complexes.
The assay was carried out on AEEE and the isolated phenolics (DeGraft-Johnson et al., 2007).

pancreatic lipase = target: T2, pancreatic lipase (Homo sapiens, UniProt P16233); assay: In vitro pancreatic lipase inhibition; assay type: biochemical; details: for IC50: concentration range 12–100 µg/mL
T2 sequence (P16233 17-465): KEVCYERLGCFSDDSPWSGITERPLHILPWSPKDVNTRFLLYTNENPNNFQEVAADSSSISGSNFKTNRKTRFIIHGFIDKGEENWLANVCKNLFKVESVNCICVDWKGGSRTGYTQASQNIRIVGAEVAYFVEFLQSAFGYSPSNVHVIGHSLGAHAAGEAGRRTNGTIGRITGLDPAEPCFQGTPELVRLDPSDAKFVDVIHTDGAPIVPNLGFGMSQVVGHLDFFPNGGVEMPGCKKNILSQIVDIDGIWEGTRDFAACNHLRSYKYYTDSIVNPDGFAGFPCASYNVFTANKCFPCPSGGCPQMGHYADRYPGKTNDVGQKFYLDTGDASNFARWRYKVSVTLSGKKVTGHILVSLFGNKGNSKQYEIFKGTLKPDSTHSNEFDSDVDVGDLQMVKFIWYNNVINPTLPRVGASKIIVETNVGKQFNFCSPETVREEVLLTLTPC
Procedure: The determination of the percentage inhibition of pancreatic lipase was calculated as prescribed by Hegazi et al., using the same formula for amylase.

ORAC antioxidant assay = assay: ORAC antioxidant assay
Description: The antioxidant assay was applied to AEEE and the isolated phenolics.

DPPH antioxidant assay = assay: DPPH antioxidant assay
Procedure: The assay was carried out for AEEE and isolated phenolics according to Brand-Williams et al..

SMILES: C[C@H]1O[C@H](O[C@H]2[C@H](O)[C@@H](O)[C@@H](O[C@H]3[C@H](O)[C@@H](O)C(O)O[C@@H]3CO)O[C@@H]2CO)[C@H](O)[C@@H](O)[C@@H]1N[C@H]1C=C(CO)[C@@H](O)[C@H](O)[C@H]1O (stereo partly drawn) [Acarbose, reference compound]
- β-glucosidase % Inhibition (β-glucosidase; at 600 µg/mL): 95.2 ± 2.30%
- β-glucosidase IC50 (β-glucosidase): 110.6 ± 3.20 µg/mL

SMILES: O=C(OC[C@H]1O[C@@H](Oc2c(-c3cc(O)c(O)c(O)c3)oc3cc(O[C@@H]4O[C@H](CO)[C@@H](O)[C@H](O)[C@H]4O)cc(O)c3c2=O)[C@H](O)[C@@H](O)[C@@H]1O)c1cc(O)c(O)c(O)c1 [Compound 1, myricetin 3-O-β-^4C1-(6′′-O-galloyl glucopyranoside)-7-O-β-^4C1-glucopyranoside]
- inhibition at 300 µg/mL (α-amylase): 91.4 ± 2.45%
- IC50 (α-amylase): 198 µM
- Ferrous reducing assay IC50 (Reducing power assay): 158.13 ± 2.82 µg/mL
- Reducing power (Reducing power assay; compared with quercetin as standard): comparable to that of standard quercetin
- inhibition at 100 µg/mL (pancreatic lipase): 87 ± 2.38%
- IC50 (pancreatic lipase): 40.3 µM
- β-glucosidase % Inhibition (β-glucosidase; at 300 µg/mL): 92.70 ± 1.42 %
- β-glucosidase IC50 (β-glucosidase): 72.77 ± 2.67 µg/mL
- ORAC IC50 (ORAC antioxidant assay): 2.01 ± 0.23 µg/mL
- DPPH IC50 (DPPH antioxidant assay): 2.37 ± 0.56 µg/mL

SMILES: C[C@@H]1O[C@@H](OC[C@H]2O[C@@H](Oc3c(-c4ccc(O)cc4)oc4cc(O)cc(O)c4c3=O)[C@H](O)[C@@H](O)[C@@H]2O)[C@H](O)[C@H](O)[C@H]1O [Compound 2, kaempfeol 3-O-rutinoside]
- inhibition at 300 µg/mL (α-amylase): 80.4 ± 3.81%
- IC50 (α-amylase): 348 µM
- inhibition at 100 µg/mL (pancreatic lipase): 35.8 ± 3.84%
- IC50 (pancreatic lipase): 228 µM
- ORAC IC50 (ORAC antioxidant assay): > 100 ± 10.17 µg/mL
- DPPH IC50 (DPPH antioxidant assay): > 100 ± 13.67 µg/mL

SMILES: C[C@@H]1O[C@@H](OC[C@H]2O[C@@H](Oc3c(-c4ccc(O)c(O)c4)oc4cc(O)cc(O)c4c3=O)[C@H](O)[C@@H](O)[C@@H]2O)[C@H](O)[C@H](O)[C@H]1O [Compound 3, quercetin 3-O-rutinoside]
- inhibition at 300 µg/mL (α-amylase): 72.1 ± 3.49%
- IC50 (α-amylase): 366 µM
- inhibition at 100 µg/mL (pancreatic lipase): 82.2 ± 2.53%
- IC50 (pancreatic lipase): 66.2 µM
- β-glucosidase % Inhibition (β-glucosidase; at 300 µg/mL): 66 ± 3.47 %
- β-glucosidase IC50 (β-glucosidase): 104 ± 3.80 µg/mL
- ORAC IC50 (ORAC antioxidant assay): 8.02 ± 0.85 µg/mL
- DPPH IC50 (DPPH antioxidant assay): 8.81 ± 1.05 µg/mL

SMILES: O=C(O[C@@H]1[C@@H](OC(=O)c2cc(O)c(O)c(O)c2)[C@H](O)O[C@@H]2COC(=O)c3cc(O)c(O)c(O)c3-c3c(cc(O)c(O)c3O)C(=O)O[C@@H]12)c1cc(O)c(O)c(O)c1 [Compound 4, tellimagranidine-I]
- inhibition at 300 µg/mL (α-amylase): 78.9 ± 4.13%
- IC50 (α-amylase): 276 µM
- inhibition at 100 µg/mL (pancreatic lipase): 19.5 ± 4.36%
- IC50 (pancreatic lipase): 343 µM
- β-glucosidase % Inhibition (β-glucosidase; at 300 µg/mL): 58.44 ± 3.61 %
- β-glucosidase IC50 (β-glucosidase): 115.21 ± 4.90 µg/mL
- ORAC IC50 (ORAC antioxidant assay): 4.14 ± 1.27 µg/mL
- DPPH IC50 (DPPH antioxidant assay): 4.64 ± 0.39 µg/mL

SMILES: O=C(O[C@H]1[C@H](O)[C@@H](CO)OC(O)[C@@H]1OC(=O)c1cc(O)c(O)c(O)c1)c1cc(O)c(O)c(O)c1 (stereo partly drawn) [Compound 5, 2,3-α, β-digalloy glucose]
- inhibition at 300 µg/mL (α-amylase): 78 ± 1.15%
- IC50 (α-amylase): 448 µM
- inhibition at 100 µg/mL (pancreatic lipase): 18.7 ± 3.1%
- IC50 (pancreatic lipase): 549 µM
- β-glucosidase % Inhibition (β-glucosidase; at 300 µg/mL): 68.43 ± 2.30 %
- β-glucosidase IC50 (β-glucosidase): 100.23 ± 3.80 µg/mL
- ORAC IC50 (ORAC antioxidant assay): 4.43 ± 0.68 µg/mL
- DPPH IC50 (DPPH antioxidant assay): 4.81 ± 0.73 µg/mL

SMILES: CCCCCCCCCCC[C@@H](C[C@@H]1OC(=O)[C@H]1CCCCCC)OC(=O)[C@H](CC(C)C)NC=O [Orlistat, reference compound]
- inhibition at 100 µg/mL (pancreatic lipase): 57 ± 4.5%

SMILES: Cc1c(C)c2c(c(C)c1O)CCC(C)(C(=O)O)O2 (stereo not drawn) [Trolox, reference compound]
- ORAC IC50 (ORAC antioxidant assay): 28.0 ± 14.31 µg/mL

SMILES: O=C1O[C@H]([C@@H](O)CO)C(O)=C1O [Vitamin C, reference compound]
- DPPH IC50 (DPPH antioxidant assay): 1.83 ± 1.41 µg/mL
